# From patent publication US20160193179A1, “Treatment of Cardiovascular Risk in Diabetic Patients” (EVOLVA SA, priority 2012, published 2016)
# Experiments:
# [1] = system: COX-2, IL-6, IL-8, ICAM-1, VCAM-1, PTX3, MCP-1 mRNA expression in HUVEC; assay: Real time RT-PCR of TNFα-induced mRNA expression in HUVEC; type: cell-based, human; conditions: for ICAM-1 mRNA expression induced by TNFα / PTX3 mRNA expression induced by TNFα: 1 ng/ml TNFα 6 h
# Description: FIGS. 1 and 2A show the effects of Compound 3 on mRNA expression of genes of interest encoding inflammatory or oxidative markers. mRNA expression is evaluated by quantitative RT-PCR in HUVEC after 6 h of TNFα stimulation. Data are means±S.D. (n=3). Statistical analysis: one way ANOVA followed by Bonferroni, Versus CTL NS p>0.05, * p<0.05, ** p<0.01, *** p<0.001; Versus TNFα $ p<0.05, $$ p<0.01, $$$ p<0.001.
# HUVEC are seeded at 67,500 cells/flask in gelatin-coated T25 in EGM. After 4 days, cell medium is replaced by EBM containing or not containing Compound 3 at different concentrations. After 1 h of preincubation, 1 ng/ml TNFα is added or is not into the T25 flasks. 6 h after, cell medium is discarded and cells are washed twice with PBS. Total RNA extraction is performed by using QIAGEN RNeasy mini Kit according to the protocol provided by the manufacturer (QIAGEN). RNA concentration for each sample is determined by Nanodrop Spectrophotometer ND-100 (ISOGEN, Life Science). Reverse transcription was performed using Transcriptor First Strand cDNA Synthesis Kit Roche (Roche Applied Science). Transcript levels are determined by quantitative reverse transcription polymerase chain reaction (qRT-PCR). cDNA obtained by reverse transcription of total RNA are diluted 100 times and 5 μl are mixed with 12.5 μl of Fast start Universal SYBRGreen Master (Roche), 2.5 μl MilliQ water, 2.5 μl of diluted primer forward and 2.5 μl of diluted primer reverse to have an optimal and final concentration of 300 nM or 900 nM. PCRs are carried out in a real-time PCR cycler (Applied Biosystems 7900HT Fast Real-time PCR System): a hot start at 95° C. for 5 min is followed by 40 cycles at 95° C. for 15 s and 65° C. for 1 min. Samples are compared using the relative cycle threshold (Ct) method. To normalize the load of cDNA for each sample, RPL13 is used as the endogenous standard. Primer sequences are listed below.
# List of primers used in real time RT-PCR.
# [2] = system: VCAM-1 and ICAM-1 protein expression in HUVEC; assay: Western blot of VCAM-1 and ICAM-1 protein expression induced by TNFα in HUVEC; type: cell-based, human; conditions: TNFα 6 h, western blot normalised by β-actin
# Description: FIGS. 2B and 2C show the effect of Compound 3 on VCAM-1 and ICAM-1 protein expression induced by TNFα in HUVEC after 6 h of incubation. B) Total protein extracts are recovered and analysed by western blot. β-actin serves as the loading control. C) Quantification of optical density of each band. Results are expressed as the ratio between the optical density of VCAM-1 or ICAM-1 and the optical density of β-actin.
# HUVEC are seeded at 187,500 cells/flask in gelatin-coated T75 in EGM. After 4 days, cell medium is replaced by EBM containing or not containing Compound 3 at different concentrations. After 1 h of preincubation, 1 ng/ml TNFα is added or is not added into the T75 flasks. 6 h after, cell media are collected and centrifuged at 500 g for 5 min to pellet and pool floating cells with adherent cells. Adherent cells are washed twice with cold PBS and are collected in 1.5 ml of PBS. Harvested cells are then centrifuged at 500 g for 5 min at 4° C. […] Protein concentration is measured using Pierce method (Pierce 660 nm protein assay, Thermoscientific, USA) with the Ionic Detergent Compatibility Reagent (Thermoscientific, USA). […] Antibody binding was analysed with the scanner Odyssey Image System (Li-COR, Biosciences, USA) and Odyssey V3.0 software. Optical density of each band is also determined by using the software.
# [3] = system: human coronary artery smooth muscle cells; assay: Human coronary artery smooth muscle cell proliferation (WST-1); type: cell-based; conditions: growth factor media; Compound 3 50 nM, 500 nM, 5 μM added 1 h before U46619; 48 h; WST-1
# Description: Human coronary artery SMC is cultured in SmGM2 kit medium. At 80% confluence, the SMCs are trypsinized and resuspended in either DMEM supplemented with 2% FCS (“low serum media”), or in SmGM2 kit medium containing 5% FCS, 2 ng/ml FGF, 0.5 ng/ml EGF, 5 μg/ml insulin (“growth factor media”). Subsequently, 5000 cells in 200 μL are added to each well in a 96-well plate and left to adhere overnight. Either vehicle or Compound 3 (50 nM, 500 nM, 5 μM) is added to the wells 1 h before U 46619 at different concentrations (0.1 nM to 10 μM) and incubated for another 48 h. All experiments are repeated 3-5 times for each experimental condition.
# Cell proliferation is evaluated using WST-1 reagent according to the manufacturer's instructions. In brief, after replacement of phenol red containing media by 200 μL transparent serum-supplemented DMEM, 10 μL of diluted WST-1 reagent is added to each well at the end of the 48 h incubation period. After 1 h incubation at 37° C., the absorbance of the formazan dye formed is measured at 440 nm using a microplate reader.
# All results are expressed as mean±SE. Statistically significant differences are determined by a one-way analysis of variances, followed by Holm-Sidak post hoc test, for multiple comparisons, using Sigma Stat software. A P value of less than 0.05 is considered significant.
# [4] = from 100 nM, not increased at 300 nM and 600 nM
structure (smiles),measurement,setting,value
"CC(C)(C)N.O=C(O)CC/C=C\C[C@@H]1CO[C@H](c2ccccc2Cl)O[C@@H]1c1ccccc1O [Compound 3, tert-butylammonium (Z)-6-((2S,4S,5R)-2-(2-chlorophenyl)-4-(2-hydroxyphenyl)-1,3-dioxan-5-yl)hex-4-enoate]",ICAM-1 mRNA expression induced by TNFα,[1]; 10 nM,no effect
same,PTX3 mRNA expression induced by TNFα,[1]; 10 nM,no effect
same,ICAM-1 mRNA expression induced by TNFα,[1]; [4],significant decrease
same,PTX3 mRNA expression induced by TNFα,[1]; [4],significant decrease
same,"mRNA expression of all genes of interest (COX-2, IL-6, IL-8, ICAM-1, VCAM-1, PTX3, MCP-1)","[1]; Compound 3 at the highest concentration, without TNFα",no effect
same,ICAM-1 protein expression induced by TNFα,[2],no effect
same,VCAM-1 protein expression induced by TNFα,[2],no effect
same,SMC proliferation induced by U46619,[3],significantly and concentration-dependently inhibits
